According to BindingDB's records for doi:10.1021/acs.jmedchem.0c00964 (Philipps-University, 2020):

target: T1, Orexin/Hypocretin receptor type 1 (Homo sapiens, UniProt O43613); assay: Displacement of [3H]-[…] from human orexin 1 receptor expressed in CHO cells incubated for 2 hrs by whole cell radioligand binding assay
T1 sequence (O43613 whole entry): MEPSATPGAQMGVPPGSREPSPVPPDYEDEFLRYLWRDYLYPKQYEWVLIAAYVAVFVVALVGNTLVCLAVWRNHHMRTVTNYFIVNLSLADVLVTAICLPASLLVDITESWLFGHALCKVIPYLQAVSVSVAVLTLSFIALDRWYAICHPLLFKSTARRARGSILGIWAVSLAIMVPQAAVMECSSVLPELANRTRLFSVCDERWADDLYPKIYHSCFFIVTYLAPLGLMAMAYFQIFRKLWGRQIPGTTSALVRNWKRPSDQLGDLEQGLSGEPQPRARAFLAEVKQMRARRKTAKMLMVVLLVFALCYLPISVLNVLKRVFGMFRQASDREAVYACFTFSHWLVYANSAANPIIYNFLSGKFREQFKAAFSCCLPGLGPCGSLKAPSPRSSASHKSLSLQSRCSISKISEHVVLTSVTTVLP

Structure (SMILES)	Ki
O=C(/C=C/c1cccc(F)c1)N1CCOc2c(cc(-c3cccnc3)cc2OC[C@H]2CCCCO2)C1	21.4 µM
O=C(c1sc2cccc(F)c2c1Cl)N1CCN(Cc2ccco2)CC1	43.7 µM
COc1ccc(C(=O)Oc2cc(=O)n(-c3ccccc3)c3c2CCCC3)cc1	24.5 µM
O=C1CCCN1c1cccc(C(=O)N(Cc2ccc(F)cc2)C2CC2)c1	32.4 µM
O=C1NC(=O)C(=Cc2c(OCc3ccccc3F)ccc3ccccc23)C(=O)N1	33.1 µM
